Assay results published in patent publication US11512111B2, “Yeats inhibitors and methods of use thereof” (The University of Hong Kong, priority 2017, dated 2022).

What was measured:
[1] = biological target: T1, AF9 YEATS domain (Homo sapiens, UniProt P42568); assay: Photo-cross-linking-based competition assay (photoaffinity probe, click chemistry, in-gel fluorescence); format: binding; conditions: ratio of IC50 values
T1 construct: His-AF9 (1-138); His (N); made in house; host or cells: E. coli Rosetta
T1 sequence (P42568 1-138): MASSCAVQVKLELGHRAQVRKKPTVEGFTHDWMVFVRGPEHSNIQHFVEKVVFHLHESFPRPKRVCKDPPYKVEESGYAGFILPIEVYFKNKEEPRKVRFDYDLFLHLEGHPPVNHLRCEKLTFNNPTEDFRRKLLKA
Procedure: Mobile phase used were water with 0.1% trifluoroacetic acid (buffer A) and 90% acetonitrile in water with 0.1% trifluoroacetic acid (buffer B). The purity (>95%) and identity of peptides were confirmed by LC-MS. The inhibitory activities of the inhibitors were determined by a photo-cross-linking-based competition assay. […] The reactions were incubated for 1 h at r.t . . . . The reactions were quenched by adding 5 volumes of ice-cold acetone and placed at −20° C. overnight to precipitate proteins. After protein precipitation, samples were centrifuged at 6000×g for 5 min at 4° C. The supernatant was discarded and the pellet was washed with ice-cooled methanol twice and air-dried for 10 min. […] Samples were then resolved by SDS-PAGE. The labeled proteins were visualized by scanning the gel on a Typhoon 9410 variable mode imager (excitation 532 nm, emission filter 580 nm). A photo-cross-linking based method was used in this study to estimate inhibitory activity (FIG. 28). This method requires the use of a photoaffinity probe. The probe (probe 1 (SEQ ID NO:48), see below) is derived from a crotonylated peptide, ligand of the protein, carrying a photo-cross-linker and a terminal alkyne as bioorthogonal. The YEATS domain is incubated and bound to the probe through Kcr-dependent recognition. Upon UV-irradiation, the photo-cross-linker is activated and rapidly cross-linked to the protein, converting the non-covalent protein-probe interaction into a covalent linkage. The probe-labeled protein is subsequently conjugated to an azide-functionalized fluorescence dye (for example, rhodamine-N3, Rho-N3) via Cu(I)-catalyzed azide-alkyne cycloaddition (CuAAC, or “click” chemistry). After SDS-PAGE, the protein can be visualized by in-gel fluorescence scanning. If photo-cross-linking of the YEATS domain with photoaffinity probe is performed in the presence of an inhibitor, which occupies the Kcr binding pocket of the YEATS domain and thus inhibits the protein-probe interaction, the percentage of the YEATS domain in the sample that is labeled by the probe will be reduced. The in-gel fluorescence intensity detected will also be decreased. By varying the concentration of inhibitor added in the sample and quantifying the resulting fluorescence intensities, a competition curve of the inhibitor toward the protein-probe interaction will be obtained, which can be used to estimate the IC50 value. Due to the covalent nature of photo-cross-linking, weak protein-protein interactions can be captured and eventually visualized. The protein concentration used in the assay can be as low as several nanograms per microliter, while the fluorescence signal can still be robustly detected and quantified.

[2] = biological target: T2, ENL YEATS domain (Homo sapiens, UniProt Q03111); assay: Photo-cross-linking-based competition assay; format: binding; conditions: competition with photoaffinity probe, in-gel fluorescence
T2 construct: His-SUMO-ENL (1-138); His (N); SUMO (N); made in house; host or cells: E. coli Rosetta
T2 sequence (Q03111 1-138): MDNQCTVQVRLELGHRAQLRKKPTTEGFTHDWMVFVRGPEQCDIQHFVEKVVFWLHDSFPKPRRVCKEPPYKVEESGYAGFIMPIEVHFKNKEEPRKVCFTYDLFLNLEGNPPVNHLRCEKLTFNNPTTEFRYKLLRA

[3] = biological target: T3, ENL (Homo sapiens, UniProt Q03111); assay: Cellular thermal shift assay (CETSA) in MOLM-13 (FLAG-ENL) cells; format: cell-based; conditions: MOLM13 (FLAG-ENL), 50 μM, 16 hours, anti-FLAG
T3 construct: expressed in transfected cells; host or cells: MOLM-13 (FLAG-ENL) cells
T3 sequence (Q03111 1-559): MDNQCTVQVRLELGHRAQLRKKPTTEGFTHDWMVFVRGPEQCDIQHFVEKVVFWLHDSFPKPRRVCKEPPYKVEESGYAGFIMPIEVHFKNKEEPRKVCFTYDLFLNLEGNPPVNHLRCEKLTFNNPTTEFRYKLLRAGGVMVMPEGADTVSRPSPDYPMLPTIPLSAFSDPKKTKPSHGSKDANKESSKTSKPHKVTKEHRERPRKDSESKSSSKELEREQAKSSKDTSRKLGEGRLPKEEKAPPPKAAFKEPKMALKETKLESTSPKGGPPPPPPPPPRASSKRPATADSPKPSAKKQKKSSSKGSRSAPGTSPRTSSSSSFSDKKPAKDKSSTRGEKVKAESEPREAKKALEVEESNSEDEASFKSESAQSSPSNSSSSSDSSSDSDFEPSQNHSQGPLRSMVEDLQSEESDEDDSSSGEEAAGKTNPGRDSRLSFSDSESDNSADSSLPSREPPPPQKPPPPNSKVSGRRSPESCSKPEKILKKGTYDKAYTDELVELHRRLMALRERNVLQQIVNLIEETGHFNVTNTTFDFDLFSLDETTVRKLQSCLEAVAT
Procedure: We next applied the cellular thermal shift assay (CETSA) to examine if XL-13m was cell permeable and could target ENL in living cells. MOLM-13 (FLAG-ENL) were treated with XL-13m for […] and then heated at different temperature to denature and precipitate proteins. […] Soluble proteins were extracted by freeze-thaw cycle and subjected to western blotting analysis.
(§1) MOLM13 (FLAG-ENL) cells were incubated with or without 50 μM compound for 16 hours and then were collected for cellular thermal shift assay (CETSA) as previously reported. Anti-FLAG antibody was used to detect ENL proteins and γ-actin blotting served as negative control.

[4] = tested on: MOLM13 (FLAG-ENL) cells; assay: Cell proliferation, trypan blue exclusion count; format: cell-based; conditions: 50 μM, live cells counted every 2-3 days
Procedure: (§2) MOLM13 (FLAG-ENL) cells were cultured with or without 50 μM compound XL-13m. Every 2-3 days, live cells were counted by trypan blue exclusion assay and re-plated. […] MOLM13 (FLAG-ENL) cells were cultured with or without 50 μM compound XL-13m for 24 hours, and the cells were treated with 50 μM for another 24 hours. […] Expression of c-Myc was quantified by qPCR.

[5] = tested on: c-Myc expression; assay: JQ1-induced decrease of c-Myc expression, qPCR; format: cell-based; conditions: MOLM13 (FLAG-ENL), 50 μM, 24 hours then another 24 hours
From the text: (§3) FIG. 49A is a graph showing the effect of treatment of MOLM13 cells with compound 39 (XL-13m) on the sensitivity of JQ1-induced decrease in c-Myc expression. Expression of c-Myc was quantified by qPCR. P value by student's t-test. Mean±s.d., three biological replicates. FIG. 49B is a graph showing the effect of treatment of MOLM13 cells with compound 39 (XL-13m) on enrichment of ENL on indicated genes. […] P value by student's t-test. Mean±s.d., triplicate PCR analysis.
as §2

[6] = biological target: T3, ENL; assay: ChIP-qPCR of ENL enrichment on genes in MOLM13 (FLAG-ENL) cells; format: cell-based; conditions: 50 μM, 72 hours
From the text: as §3
as §1, with “MOLM13 (FLAG-ENL) cells were cultured with or without 50 μM compound XL-13m for 72 hours. […] MOLM13” for “MOLM13”

CC(=O)N[C@@H](C)C(=O)N[C@@H](CCCNC(=N)N)C(=O)N[C@@H](CCCCNC(=O)c1cnco1)C(N)=O [Compound 39]
activity on AF9 weaker than on ENL [1]: 4.5 fold | IC50 [2]: 560 nM | thermal shift: targeting of ENL protein in living cells [3]: revealed the target of ENL protein | effect on cell proliferation [4]: affected cell proliferation | sensitivity of JQ1-induced decrease of c-Myc expression [5]: increased the sensitivity | enrichment of ENL on indicated genes [6]: decrease of the enrichment of ENL
